Laboratory results reported in patent US6905834B1, “Bioluminescent bioreporter integrated circuit detection methods” (UT-Battelle, LLC, priority 1997, dated 2005).
Like-named read-outs stand apart in the source and are kept apart here. Marks after values point to notes of the source that are not given here.

Key:
P. putida TVA8 = format: cell-based, Pseudomonas putida; conditions: for light response (in words): approximately 50 mg/L (JP-4 approx. 2%), 2 h; for Specific Bioluminescence: approximately 50 mg/L
P. fluorescens HK44 = format: cell-based, Pseudomonas fluorescens
Excerpt: A previously developed PBR system with on-line instrumentation (Webb, 1992; Webb et al., 1991) was used to measure bacterial degradative and bioluminescent activity under conditions mimicking those of the subsurface. The reactor design is detailed in FIG. 21. The PBR was temperature controlled and fitted with metal frits welded to the inlet and outlet to retain and distribute feed to immobilized cultures. An additional inter-cavity insert allowed the installation of filters (e.g., […] inorganic and polymeric) between the packed bed and outlet frit that filtered the effluent for automatic injection into the on-line high-performance liquid chromatography (HPLC) and that produced a uniform resistance to flow that improved the overall distribution to the reactor (Webb, 1992). […] HPLC pumps supplied media to each reactor from pressurized feed reservoirs. All nutrients, including oxygen, entered the reactor dissolved in the liquid phase. Naphthalene and salicylate were detected with an on-line HPLC using a Vydac TP20154 column (Sep/A/Ra/Tions Group, Hesperia, Calif.) with a FL-4 dual-monochromator fluorescent detector (Perkin-Elmer, Norwalk, Conn.). Respective excitation and emission wavelengths for salicylate detection were 290 and 360 nm. The reactor was fitted with an on-line light detector for monitoring bioluminescent activity (Dunbar, 1992) consisting of a glued fiber bundle (Ensign Bickford Optics, Simsbury, Conn.) placed approximately 2.5 cm from the entrance of the reactor. An Oriel Inc. (Stratford, Conn.) 7070 photomultiplier detection system using a Model 77348 photomultiplier tube (radiant sensitivity of […] near 500 nm) were employed.
Mineral salts media (pH 7.2) consisting of MgSO4 7H2O ([…]), NH4NO3 ([…]), trizma™ base ([…]), MgO (1.0×10^−3 g/l), CaCl2 (2.9×10^−4 g/l), FeCl3.6H2O (5.4×10^−4 g/l), ZnSO4.7H2O (1.4×10^−4 g/l), CuSO4 (2.5×10^−5 g/l), […] (6.2×10^−6 g/l), and Na2MoO4.H2O (4.9×10^−5 g/l) were supplied to the reactor with an appropriate carbon source for degradation and bioluminescence studies. Kinetic bacterial studies were phosphate limited and maintained aerobic by con-trolled pressurization of feeds and the reactor.
The HK44 was prepared for immobilization by adding freshly thawed inoculum (frozen at −70° C. until use) to 100 mL of YEPG media which contained glucose (1.0 g/l), polypeptone (2.0 g/l), yeast extract (0.2 g/l), NH4NO3 (0.2 g/l), and tetracycline (14 mg/l). The culture was shaken for 15 hours at 25° C. and then centrifuged at 8000 rpm for 10 minutes. The pellet was then washed with 0.9% NaCl solution three times before immobilization. The concentration of HK44 was enumerated by measuring optical density at 546 nm. The HK44 was immobilized by suspending bacteria in 0.9% NaCl solution and mixing with a low-viscosity alginate (28 g/L) and NaCl (9 g/L) solution in a ratio of 1:2 by volume. Beads were formed by controlled dropwise addition to 0.1 M CaCl2 solution by a syringe needle installed in an air jet controlled by a precision regulator (Porter Instrument Co., Hatfield, Pa.) and a piece of 0.003-in. (i.d.) tubing. Beads diameters were measured using gentle wet sieving. Alginate beads were dissolved in 50 mM sodium hexametaphosphate. […]

[1] = Adsorption isotherms on calcium alginate; format: physicochemical
Experimental: Tracer concentrations were measured using a Waters ion-chromatography system with a series 510 HPLC pump, IC-PAK anion exchange column, and 431 conductance detector (Waters, Cam-bridge, MA) or monitored continuously using fluorescence.

P. putida B2 = assay: Immobilized cell reactor (DVR) with alginate-encapsulated P. putida B2: bioluminescence and TCE co-metabolism; format: cell-based, Pseudomonas putida
Experimental: In the batch and reactor studies, bioluminescence was measured using a photomultiplier, which converts the light to an electric current. The photomultiplier in the resting cell assays and the reactor system was connected to a computer and bioluminescence as namps current was recorded.
P. putida B2 was encapsulated in alginate beads for the immobilized cell reactor system. Cells were grown in 1 L LB to an OD546 of 1.2 and were centrifuged at 5500×g for 10 min, washed three times in 0.9% NaCl and suspended in 40 ml 0.9% NaCl. The cell suspension was added to 80 ml of an alginic acid solution (28 g L^−1 low viscosity alginate, 0.9% NaCl) (Webb, 1992). The cell-alginate suspension was placed in a 60-ml syringe, forced through a 25-gauge needle, and allowed to drop into a 0.5 M CaCl2 Solution. The alginate was cross-linked by the Ca^2+ ions, thus encapsulating the cells. The cells were subsequently placed in a fresh solution of 0.1 M CaCl2 and allowed to sit for 30 min prior to use.
A differential volume reactor (DVR) was used to simulate a section of an ideal plug flow reactor. Influent to the reactor was dispersed through a porous metal frit to provide a flat velocity profile to the bed. The reactor measured 5.0 cm i.d.×5.0 cm long. A complete description of this reactor can be found in Webb et al. (1991). In this investigation, a system was designed incorporating the DVR as illustrated in FIG. 17. The system was equipped with three Millipore (Bedford, Mass.) stainless steel substrate containers rated to 690 kPa. The feed from the substrate vessels to the reactor inlet was controlled by two Filson (Middleton, Wis.) 301 HPLC pumps. A flow rate of 0.4 ml min^−1 was maintained. The substrate vessels were pressurized with oxygen to provide the system with an electron acceptor. All medium vessels contained trace mineral medium (Lackey et al., 1993) with the addition of 3 mg L^−1 pyruvic acid and a 0.1 M solution of Tris-base (pH 7.0). phosphate buffers were not used since phosphate ions complex with Ca^2+ ions and disrupt with alginate crosslinking. In addition to this medium, two of the vessels contained either TCE or toluene. The inlet concentration of toluene was altered by using square-wave perturbations with 20-h cycles (10 h with toluene, 10 h without toluene) using an HPLC pump controlled by a timer. During feed portions of the cycle, 10 mg L^−1 toluene was introduced into the inlet of the reactor. The inlet TCE concentration was constant at 20 mg L^−1.
Analysis of TCE in the reactor effluent was performed online using a stripping column (12.5 cm length and 0.4 cm inner diameter) packed with 3-mm glass beads to provide adequate surface area for TCE separation. TCE was stripped with helium, the GC carrier gas. The stripping column outlet was attached to a gas chromatograph (GC, Hewlett Packard (Wilmington, Del.) (HP) 5890 Series II) with an electron capture detector by a heated sample line maintained at 75° C. Automatic injections (25 μl) were made by a computerized control process (HP Chem Station software). The GC was equipped with a cross-linked methyl silicone capillary column (length 30 n, i.d 0.2 mm, 0.33-μm film thickness) while the oven was operated isothermally at 60° C. Other operating parameters included an injection temperature of 150° C., detector temperature of 200° C. and a split ratio of 10:1. This system was equipped with a bypass line around the reactor in order to calibrate the stripping column.
Toluene samples were removed at 0.5-ml aliquots from the effluent sampling port (FIG. 17) and injected into 1.5 ml sample vials. Headspace analysis was performed using a Shimadzu (Columbia, Md.) GC-9A gas chromatograph equipped with a 2.44-m, 3.2-mm diameter Poropak N packed column and a flame ionization detector. The isothermal temperature of the oven was 210° C., and both the detector and injector temperatures were 220° C.

[2] = exposure 2 hours, normalized to final OD546, average ± SD of three replicates
[3] = inlet TCE 20 mg/L, toluene being introduced

SMILES: c1ccccc1 [Benzene, benzene]
- light response (in words) (P. putida TVA8): significant light response
- Specific Bioluminescence (P. putida TVA8; [2]): 242 ± 9 namp/OD

SMILES: CCc1ccccc1 [Ethylbenzene, ethylbenzene]
- induction of bioluminescence response in pre-grown cells (P. putida TVA8; 50 mg/L, cells previously grown on ethylbenzene, growing cell assays): induce the bioluminescence response without a lag period
- Specific Bioluminescence (P. putida TVA8; [2]): 1.0 ± 0.2 namp/OD
- Specific Bioluminescence (P. putida TVA8; exposure 4 hours, from a similar but separate study): 47 ± 6^c namp/OD

SMILES: Oc1ccccc1 [Phenol, phenol]
- light response (in words) (P. putida TVA8): significant light response
- Specific Bioluminescence (P. putida TVA8; [2]): 70 ± 2 namp/OD

SMILES: O=C([O-])c1ccccc1O.[Na+] [Sodium salicylate, sodium salicylate]
- least-squares reaction rate constant, overall second order model (P. fluorescens HK44; complete data set, figure legends): 2.23×10^−2 dm^3/g mol
- Salicylate effluent ± σ (P. fluorescens HK44; experiment 1a, biomass 3.3 × 10^9 cells/mL, feed 2.25 mg/L, τ 14 min): 1.43 ± 2.85 × 10^−2 mg/L
- Salicylate effluent ± σ (P. fluorescens HK44; experiment 1b, biomass 3.3 × 10^9 cells/mL, feed 2.25 mg/L, τ 58 min): 0.46 ± 0.84 × 10^−2 mg/L
- Salicylate effluent ± σ (P. fluorescens HK44; experiment 1c, biomass 3.3 × 10^9 cells/mL, feed 2.25 mg/L, τ 14 min): 1.65 ± 4.77 × 10^−2 mg/L
- Salicylate effluent ± σ (P. fluorescens HK44; experiment 2a, biomass 3.5 × 10^9 cells/mL, feed 2.47 mg/L, τ 24 min): 1.03 ± 2.83 × 10^−2 mg/L
- Salicylate effluent ± σ (P. fluorescens HK44; experiment 2b, biomass 3.5 × 10^9 cells/mL, feed 2.47 mg/L, τ 26 min): 0.86 ± 0.93 × 10^−2 mg/L
- Salicylate effluent ± σ (P. fluorescens HK44; experiment 2c, biomass 3.5 × 10^9 cells/mL, feed 2.47 mg/L, τ 94 min): 0.20 + 0.28 × 10^−2 mg/L
- Salicylate effluent ± σ (P. fluorescens HK44; experiment 3a, biomass […] 10^9 cells/mL, feed 4.45 mg/L, τ 15 min): 4.06 ± 8.85 × 10^−2 mg/L
- Salicylate effluent ± σ (P. fluorescens HK44; experiment 3b, biomass […] 10^9 cells/mL, feed 4.45 mg/L, τ 18 min): 3.84 ± 6.99 × 10^−2 mg/L
- Salicylate effluent ± σ (P. fluorescens HK44; experiment 3c, biomass […] 10^9 cells/mL, feed 4.45 mg/L, τ 24 min): 3.42 ± 8.55 × 10^−2 mg/L
- Salicylate effluent ± σ (P. fluorescens HK44; experiment 3f, biomass […] 10^9 cells/mL, feed 4.45 mg/L, τ 24 min): 3.12 ± 4.09 × 10^−2 mg/L
- Salicylate effluent ± σ (P. fluorescens HK44; experiment 4b, biomass […] 10^9 cells/mL, feed 4.45 mg/L, τ 36 min): 2.76 ± 3.95 × 10^−2 mg/L
- Salicylate effluent ± σ (P. fluorescens HK44; experiment 4c, biomass […] 10^9 cells/mL, feed 4.45 mg/L, τ 48 min): 2.25 ± 3.47 × 10^−2 mg/L
- Salicylate effluent ± σ (P. fluorescens HK44; experiment 4e, biomass […] 10^9 cells/mL, feed 4.45 mg/L, τ 150 min): 0.89 ± 1.54 × 10^−2 mg/L
- Salicylate effluent ± σ (P. fluorescens HK44; experiment 4f, biomass […] 10^9 cells/mL, feed 4.45 mg/L, τ 48 min): 2.24 + 3.49 × 10^−2 mg/L
- Salicylate effluent ± σ (P. fluorescens HK44; experiment 3d, biomass […] 10^9 cells/mL, feed 4.45 mg/L, τ 36 min): 2.77 + 4.24 × 10^−2 mg/L
- Salicylate effluent ± σ (P. fluorescens HK44; experiment 4d, biomass […] 10^9 cells/mL, feed 4.45 mg/L, τ 72 min): 1.75 ± 2.03 × 10^−2 mg/L
- salicylate degradation rate constant (first order in biomass, first order in salicylate) (P. fluorescens HK44; fitted to subset 1a-c): 1.88×10^−2 dm^3 g^−1 min^−1
- salicylate degradation rate constant (first order in biomass, first order in salicylate) (P. fluorescens HK44; fitted to subset 2a-c): 2.85×10^−2 dm^3 g^−1 min^−1
- salicylate degradation rate constant (first order in biomass, first order in salicylate) (P. fluorescens HK44; fitted to subset 3a-f): 2.06×10^−2 dm^3 g^−1 min^−1
- salicylate degradation rate constant (first order in biomass, first order in salicylate) (P. fluorescens HK44; fitted to subset 4a-f): 2.28×10^−2 dm^3 g^−1 min^−1
- salicylate degradation rate constant (first order in biomass, first order in salicylate) (P. fluorescens HK44; fitted to the complete set): 2.23×10^−2 dm^3 g^−1 min^−1
- slope of best-fit line, specific light response vs predicted salicylate concentration at the light probe (P. fluorescens HK44; studies 2a-c): 1.4
- slope of best-fit line, specific light response vs predicted salicylate concentration at the light probe (P. fluorescens HK44; studies 3c-e): 2.3
- slope of best-fit line, specific light response vs predicted salicylate concentration at the light probe (P. fluorescens HK44; studies 4c-f): 1.5
- conversion (P. fluorescens HK44; study 1a): 0.64
- conversion (P. fluorescens HK44; study 1c): 0.73
- conversion (P. fluorescens HK44; study 3c): 0.77
- conversion (P. fluorescens HK44; study 3e): 0.41
- conversion (P. fluorescens HK44; study 3f): 0.70
- conversion (P. fluorescens HK44; study 4b): 0.62
- conversion (P. fluorescens HK44; study 4c): 0.50
- conversion (P. fluorescens HK44; study 4f): 0.50
- conversion (P. fluorescens HK44; study 3d): 0.62
- conversion (P. fluorescens HK44; study 4d): 0.39
- adsorption on calcium alginate (in words) ([1]; listed as Salicylate): did not measurably absorb
- adsorption on calcium alginate (in words) ([1]; listed as salicylate): did not appreciably partition

SMILES: ClC=C(Cl)Cl [TCE, trichloroethylene]
- toxic effects of continuous TCE exposure (in words) (P. putida B2; 20 mg/l TCE): there did not appear to be any toxic effects
- induction of the tod operon by TCE (in words) (P. putida B2; absence of toluene, 20 mg/L TCE): did not appear to induce the tod operon
- TCE removal (P. putida B2; [3]): 20%
- steady-state TCE effluent concentration (P. putida B2; [3]): 16.5 ± 0.2 mg/L

SMILES: Cc1cccc(C)c1 [m-xylene]
- light response (in words) (P. putida TVA8): significant light response
- Specific Bioluminescence (P. putida TVA8; [2]): 38 ± 3 namp/OD

SMILES: Cc1ccccc1C [o-xylene]
- light response (in words) (P. putida TVA8): no increase of bioluminescence
- Specific Bioluminescence (P. putida TVA8; [2]): 0.5 ± 0.1 namp/OD

SMILES: Cc1ccc(C)cc1 [p-xylene]
- light response (in words) (P. putida TVA8): significant light response
- Specific Bioluminescence (P. putida TVA8; [2]): 24 ± 2 namp/OD
